From US4820695A, “C-20-dihydro-deoxy-(cyclic amino)-derivatives of macrolide antibiotics” (priority 1987, dated 1989) come the findings set out here.

A word on the ED50: it is the dose that gives a 50% effect, or the effect in half of the subjects. Usually pKa stands for the pH at which an ionisable group is half protonated. A high value points to a group that holds its proton tightly.

Values after ≈ are worked out from the molar mass of the structure shown. Read-outs that look alike come from different tables or passages of the source. Where only a bound is given, the exact number is not on record here.

The test system of one data set is Staphyloccus aureus X1.1. The data set can be described thus: MIC, standard agar-dilution assay (Table IX). In kind it is cell-based, Staphylococcus aureus. The conditions noted are these: Staphylococcus aureus, read-out: MIC.
Data set [1] relates to Staphylococcus aureus V41. The data set can be described thus: MIC, standard agar-dilution assay (Table IX). In kind it is cell-based. The conditions noted are these: Staphylococcus aureus V41, Penicillin-resistant strain, read-out: MIC.
Data set [2] relates to Staphylococcus aureus X400. Description: MIC, standard agar-dilution assay (Table IX). In kind it is cell-based. The conditions noted are these: Staphylococcus aureus X400, Methicillin-resistant strain, read-out: MIC.
The subject of data set [3] is Staphylococcus aureus S13E. The data set can be described thus: MIC, standard agar-dilution assay (Table IX). The class given is cell-based. The note with it: Staphylococcus aureus, S13E.
For data set [4], the system named is Staphylococcus epidermidis EPI1. The data set can be described thus: MIC, standard agar-dilution assay (Table IX). The class given is cell-based. The note with it: Staphylococcus epidermidis EPI1; agar-dilution; read-out: MIC.
Data set [5] concerns Staphylococcus epidermidis 222. The data set can be described thus: MIC, standard agar-dilution assay (Table IX). In kind it is cell-based. The note with it: read-out: MIC.
Data set [6] relates to Streptococcus pyogenes C203. Description: MIC, standard agar-dilution assay (Table IX). The note with it: read-out: MIC. In kind it is cell-based.
Data set [7] has as its system Streptococcus pneumoniae Park I. Description: MIC, standard agar-dilution assay (Table IX). The note with it: Streptococcus pneumoniae Park I; agar-dilution; read-out: MIC. In kind it is cell-based.
In data set [8] the test system is Streptococcus Group D X66. Description: MIC, standard agar-dilution assay (Table IX). The conditions noted are these: read-out: MIC. In kind it is cell-based.
The test system of data set [9] is Streptococcus Group D 2041. The data set can be described thus: MIC, standard agar-dilution assay (Table IX). In kind it is cell-based. The conditions noted are these: GROUPD2041, read-out: MIC.
Data set [10] relates to Haemophilus influenzae C.L. The data set can be described thus: MIC, standard agar-dilution assay (Table IX). The class given is cell-based. The note with it: Ampicillin-sensitive strain, read-out: MIC.
For data set [11], the system named is Haemophilus influenzae 76. The data set can be described thus: MIC, standard agar-dilution assay (Table IX). The class given is cell-based. The note with it: Haemophilus influenzae 76, Ampicillin-resistant strain, read-out: MIC.
For the next data set, the system named is Escherichia coli N10. Description: MIC, standard agar-dilution assay (Table IX). The class given is cell-based. The conditions noted are these: read-out: MIC.
In a further data set the test system is Escherichia coli EC14. The data set can be described thus: MIC, standard agar-dilution assay (Table IX). The class given is cell-based. The note with it: read-out: MIC.
For a further data set, the system named is Escherichia coli TEM. The data set can be described thus: MIC, standard agar-dilution assay (Table IX). The class given is cell-based. The note with it: read-out: MIC.
For a further data set, the system named is Klebsiella X26. Description: MIC, standard agar-dilution assay (Table IX). The class given is cell-based. The conditions noted are these: read-out: MIC.
The test system of data set [12] is Mycoplasma gallisepticum 29C. The data set can be described thus: MIC, broth-dilution microtiter test (Table X). In kind it is cell-based. The conditions noted are these: Mycoplasmoides gallisepticum, read-out: MIC. From the text: (§1) The MIC's in Table X were obtained using conventional broth-dilution microtiter tests.
For data set [13], the system named is Mycoplasma hyopneumoniae S5972. The data set can be described thus: MIC, broth-dilution microtiter test (Table X). The conditions noted are these: Mesomycoplasma hyopneumoniae, read-out: MIC. The class given is cell-based.
Description: as §1

For a further data set, the system named is Mycoplasma hyorhinis 29E. The data set can be described thus: MIC, broth-dilution microtiter test (Table X). In kind it is cell-based. The conditions noted are these: read-out: MIC.
Description: as §1

The test system of a further data set is Mycoplasma synoviae 40A. Description: MIC, broth-dilution microtiter test (Table X). The class given is cell-based. The conditions noted are these: Mycoplasmopsis synoviae, read-out: MIC.
Description: as §1

For data set [14], the system named is Pasteurella hemolytica 22C. The data set can be described thus: MIC, broth-dilution microtiter test (Table X). The class given is cell-based. The conditions noted are these: read-out: MIC.
Description: as §1

Data set [15] has as its system Pasteurella multocida 17E. Description: MIC, broth-dilution microtiter test (Table X). The class given is cell-based. The note with it: Bovine isolate, read-out: MIC.
Description: as §1

Data set [16] deals with Pasteurella multocida 60A. The data set can be described thus: MIC, broth-dilution microtiter test (Table X). The class given is cell-based. The note with it: Avian isolate, read-out: MIC.
Description: as §1

The test system of a further data set is Staphylococcus aureus. The data set can be described thus: MIC, broth-dilution microtiter test (Table X). The conditions noted are these: read-out: MIC. The class given is cell-based.
Description: as §1

Another data set has as its system Streptococcus sp. 19F. The data set can be described thus: MIC, broth-dilution microtiter test (Table X). The class given is cell-based. The conditions noted are these: read-out: MIC.
Description: as §1

Data set [17] deals with Streptococcus pyogenes C203. The data set can be described thus: ED50 in mice experimentally infected with S. pyogenes C203 (Table XI). In kind it is in vivo. The note with it: Streptococcus pyogenes, doses given 1 and 4 hours postinfection, read-out: ED50. The procedure: The C-20 modified derivatives of this invention have shown in vivo antimicrobial activity against experimentally-induced infections in laboratory animals. When two doses of test compound were administered to mice experimentally infected with S. pyogenes C203, the activity observed was measured as an ED50 value [effective dose in mg/kg to protect 50% of the test animals: see Warren Wick, et al., J. Bacteriol. 81, 233-235 (1961)].
^a mg/kg × 2; doses given 1 and 4 hours postinfection

In data set [18] the test system is Pasteurella multocida. Description: Pasteurella infection in one-day-old chicks, subcutaneous administration (Table XII). The note with it: Administered subcutaneously, 30 mg/kg × 2, 1 and 4 hours post-challenge. In kind it is in vivo. The procedure: (§2) Many of the C-20 modified derivatives of this invention have also shown in vivo antibacterial activity against infections induced by gram-negative bacteria. Tables XII and XIII summarize the results of tests in which illustrative compounds were evaluated against a Pasteurella infection in one-day-old chicks. The compounds were administered parenterally or orally after challenge of the chicks with Pasteurella multocida (0.1 ml of a 10^-4 dilution of a twenty-hour tryptose broth culture of an avian P. multocida given subcutaneously). In these tests, unless indicated otherwise, all non-medicated infected chicks died within 24 hours of Pasteurella challenge. In the tests summarized in Table XII, the compounds were administered by subcutaneous injection at a dosage of 30 mg/kg, 1 and 4 hours post-challenge of the chicks with P. multocida. In the tests summarized in Table XIII the compounds were administered in medicated drinking water (at a level of 2 g/gal) available from 4 to 20 hours prior to challenge of the chicks with P. multocida and during the 3 -day test period.
^a Administered subcutaneously; 30 mg/kg × 2

Data set [19] deals with Pasteurella multocida. The data set can be described thus: Pasteurella infection in one-day-old chicks, medicated drinking water (Table XIII). The class given is in vivo. The conditions noted are these: Administered in the available drinking water at 2 g/gal. The procedure: as §2
^a Administered in the available drinking water at a concentration of […]

A short description of data set [20]: Titratable groups in 66% aqueous DMF (Tables XIV-XVI). The class given is physicochemical. The text has this: ^c Run in 66% aqueous DMF
^d Run in 66% aqueous DMF

`CCC1OC(=O)CC(O)C(C)C(OC2OC(C)C(O)C(N(C)C)C2O)C(CCN2CCC(Cc3ccccc3)CC2)CC(C)C(=O)C=CC(C)=CC1COC1OC(C)C(O)C(OC)C1OC` (stereo not drawn) [Compound D27, 20-DH-DO-20-(4-benzyl-piperidin-1-yl)desmycosin]: the MIC in the data set on Staphyloccus aureus X1.1 is 1 µg/mL (≈ 1.07 µM); in data set [1] it was 1 µg/mL (≈ 1.07 µM); in data set [2] it was 1 µg/mL (≈ 1.07 µM); in [3] it was 1 µg/mL (≈ 1.07 µM); in data set [4] it was 1 µg/mL (≈ 1.07 µM); in data set [5], 0.25 µg/mL (≈ 0.268 µM). Moreover, the MIC in [6] was found to be 0.25 µg/mL (≈ 0.268 µM); in data set [7] it was 0.5 µg/mL (≈ 0.537 µM); in data set [8], 2 µg/mL (≈ 2.15 µM); in [9] it was 4 µg/mL (≈ 4.3 µM); in data set [10] it was 32 µg/mL (≈ 34.4 µM); in data set [11], 16 µg/mL (≈ 17.2 µM). The MIC in the data set with Escherichia coli N10 was 128 µg/mL (≈ 137 µM); in the data set with Escherichia coli EC14 it was 128 µg/mL (≈ 137 µM); in the data set with Escherichia coli TEM it was 32 µg/mL (≈ 34.4 µM); in the data set on Klebsiella X26, 64 µg/mL (≈ 68.7 µM); in data set [12], not above 0.048 µg/mL; in data set [13], 0.39 µg/mL (≈ 0.419 µM). The MIC with Mycoplasma hyorhinis 29E was 25 µg/mL (≈ 26.8 µM); in the data set with Mycoplasma synoviae 40A, not above 0.048 µg/mL; in data set [14] it was 12.5 µg/mL (≈ 13.4 µM); in data set [15], 6.25 µg/mL (≈ 6.71 µM); in data set [16], 12.5 µg/mL (≈ 13.4 µM); with Staphylococcus aureus, 3.12 µg/mL (≈ 3.35 µM). Moreover, in the data set on Streptococcus sp. 19F, the MIC stood at 0.78 µg/mL (≈ 0.838 µM). Also, the ED50 in data set [17] (C203, Oral) is 16.5 mg/kg; in data set [17] (C203, sc, Subcutaneous) it was 3.81 mg/kg. Further, in the data set with Pasteurella multocida [18], the “Number of Deaths/Number Treated” value is recorded as 8/10.

In the case of `CCC1OC(=O)CC(O)C(C)C(OC2OC(C)C(O)C(N(C)C)C2O)C(CCN2CC3CCCCC3C2)CC(C)C(=O)C=CC(C)=CC1COC1OC(C)C(O)C(OC)C1OC` (stereo not drawn) [Compound D45], the “Number of Deaths/Number Treated” value in the data set on Pasteurella multocida [18] is on record as 0/10; with Pasteurella multocida [19], 1/10.

`CCC1OC(=O)CC(O)C(C)C(OC2OC(C)C(O)C(N(C)C)C2O)C(CCN2CCCC3CCCCC32)CC(C)C(=O)C=CC(C)=CC1COC1OC(C)C(O)C(OC)C1OC` (stereo not drawn) [Compound D20, 20-DH-DO-20-(decahydroquinolin-1-yl)desmycosin]: the MIC in the data set on Staphyloccus aureus X1.1 came to 0.5 µg/mL (≈ 0.559 µM); in data set [1] it was 0.5 µg/mL (≈ 0.559 µM); in data set [2], 0.5 µg/mL (≈ 0.559 µM); in [3], 0.5 µg/mL (≈ 0.559 µM); in data set [4] it was 0.5 µg/mL (≈ 0.559 µM); in [5] it was 0.25 µg/mL (≈ 0.279 µM). The MIC in data set [6] came to 0.25 µg/mL (≈ 0.279 µM); in data set [7], 0.12 µg/mL (≈ 0.134 µM); in data set [8] it was 8 µg/mL (≈ 8.94 µM); in data set [9], 8 µg/mL (≈ 8.94 µM); in data set [10], 16 µg/mL (≈ 17.9 µM); in data set [11] it was 16 µg/mL (≈ 17.9 µM). Also, the MIC in the data set with Escherichia coli N10 was 128 µg/mL (≈ 143 µM); in the data set on Escherichia coli EC14, 128 µg/mL (≈ 143 µM); with Escherichia coli TEM it was 32 µg/mL (≈ 35.7 µM); with Klebsiella X26, 16 µg/mL (≈ 17.9 µM); in data set [12], 0.78 µg/mL (≈ 0.871 µM); in data set [13], 0.78 µg/mL (≈ 0.871 µM). In addition, the MIC was 50 µg/mL (≈ 55.9 µM) in the data set on Mycoplasma hyorhinis 29E; 0.195 µg/mL (≈ 0.218 µM) with Mycoplasma synoviae 40A; 3.12 µg/mL (≈ 3.49 µM) in data set [14]; 3.12 µg/mL (≈ 3.49 µM) in data set [15]; 3.12 µg/mL (≈ 3.49 µM) in [16]; 0.78 µg/mL (≈ 0.871 µM) in the data set with Staphylococcus aureus. In addition, the MIC in the data set with Streptococcus sp. 19F was found to be 3.12 µg/mL (≈ 3.49 µM). In addition, the 50% effective dose (ED50) in data set [17] (C203, Oral) is 34 mg/kg; in data set [17] (C203, sc, Subcutaneous) it was 1.7 mg/kg. For the same molecule, the “Number of Deaths/Number Treated” value in the data set on Pasteurella multocida [19] is reported as 0/10. The results for the pKa in data set [20] (Titratable groups) and in data set [20] (Titratable groups (first value)) were 9.4 and 7.9, respectively.
